# Source: ChEMBL document CHEMBL4507319 (2021)
# Tests used:
# [1] = target: Ribosomal protein S6 kinase beta-1 (Homo sapiens) (UniProt P23443); conditions: Compound concentration 1000.0 nM
# [2] = target: Alpha-2B adrenergic receptor (Homo sapiens) (UniProt P18089); conditions: Compound concentration 10.0 uM
# [3] = target: Serine/threonine-protein kinase SBK1 (Homo sapiens) (UniProt Q52WX2); conditions: Compound concentration 1000.0 nM
# [4] = target: 5-hydroxytryptamine receptor 5A (Homo sapiens) (UniProt P47898); conditions: Compound concentration 10.0 uM
# 5-hydroxytryptamine receptor 5A (Homo sapiens), sequence (P47898 whole entry): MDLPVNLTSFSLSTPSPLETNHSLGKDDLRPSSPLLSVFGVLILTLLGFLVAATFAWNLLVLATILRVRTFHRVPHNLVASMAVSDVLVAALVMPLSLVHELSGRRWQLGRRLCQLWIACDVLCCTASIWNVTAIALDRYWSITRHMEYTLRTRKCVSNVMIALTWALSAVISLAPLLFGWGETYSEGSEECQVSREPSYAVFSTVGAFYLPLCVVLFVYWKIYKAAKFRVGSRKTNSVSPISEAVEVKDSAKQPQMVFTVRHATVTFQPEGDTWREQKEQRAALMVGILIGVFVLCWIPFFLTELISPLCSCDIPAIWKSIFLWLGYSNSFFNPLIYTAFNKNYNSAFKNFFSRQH
# [5] = target: Aurora kinase B (Homo sapiens) (UniProt Q96GD4); conditions: Compound concentration 1000.0 nM
# Aurora kinase B (Homo sapiens), sequence (Q96GD4 whole entry): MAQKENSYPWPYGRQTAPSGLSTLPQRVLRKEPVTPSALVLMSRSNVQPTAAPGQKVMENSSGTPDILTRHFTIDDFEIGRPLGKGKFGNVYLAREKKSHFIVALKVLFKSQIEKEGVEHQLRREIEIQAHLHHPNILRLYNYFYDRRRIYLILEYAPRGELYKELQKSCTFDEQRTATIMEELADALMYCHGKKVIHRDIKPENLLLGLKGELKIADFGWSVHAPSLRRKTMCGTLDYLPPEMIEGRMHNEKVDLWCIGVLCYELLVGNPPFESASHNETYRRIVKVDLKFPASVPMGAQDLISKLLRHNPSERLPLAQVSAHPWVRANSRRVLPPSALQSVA
# [6] = target: T1, Cytoplasmic tyrosine-protein kinase BMX (Homo sapiens) (UniProt P51813); conditions: Compound concentration 1000.0 nM
# T1 sequence (whole entry): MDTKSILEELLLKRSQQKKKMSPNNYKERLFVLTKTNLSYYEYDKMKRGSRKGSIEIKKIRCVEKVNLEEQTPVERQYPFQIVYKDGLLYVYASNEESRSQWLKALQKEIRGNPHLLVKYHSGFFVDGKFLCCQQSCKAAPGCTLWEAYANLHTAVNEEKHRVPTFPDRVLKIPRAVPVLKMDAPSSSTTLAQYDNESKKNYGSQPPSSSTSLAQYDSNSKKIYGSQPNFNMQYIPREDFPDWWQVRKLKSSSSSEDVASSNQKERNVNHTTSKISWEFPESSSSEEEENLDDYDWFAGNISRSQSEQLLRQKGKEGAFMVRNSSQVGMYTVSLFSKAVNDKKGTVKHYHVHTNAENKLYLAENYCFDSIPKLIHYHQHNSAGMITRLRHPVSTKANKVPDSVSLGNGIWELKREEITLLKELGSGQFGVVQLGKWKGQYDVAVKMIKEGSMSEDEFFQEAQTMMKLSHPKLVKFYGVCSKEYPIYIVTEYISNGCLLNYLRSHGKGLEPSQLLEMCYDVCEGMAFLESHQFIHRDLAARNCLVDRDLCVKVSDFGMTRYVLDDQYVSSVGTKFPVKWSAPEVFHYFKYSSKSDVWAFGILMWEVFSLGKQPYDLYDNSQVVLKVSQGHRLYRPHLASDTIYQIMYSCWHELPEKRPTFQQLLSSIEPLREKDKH
# [7] = target: MAP/microtubule affinity-regulating kinase 3 (Homo sapiens) (UniProt P27448); conditions: Compound concentration 1000.0 nM
# MAP/microtubule affinity-regulating kinase 3 (Homo sapiens), sequence (P27448 whole entry, looked up): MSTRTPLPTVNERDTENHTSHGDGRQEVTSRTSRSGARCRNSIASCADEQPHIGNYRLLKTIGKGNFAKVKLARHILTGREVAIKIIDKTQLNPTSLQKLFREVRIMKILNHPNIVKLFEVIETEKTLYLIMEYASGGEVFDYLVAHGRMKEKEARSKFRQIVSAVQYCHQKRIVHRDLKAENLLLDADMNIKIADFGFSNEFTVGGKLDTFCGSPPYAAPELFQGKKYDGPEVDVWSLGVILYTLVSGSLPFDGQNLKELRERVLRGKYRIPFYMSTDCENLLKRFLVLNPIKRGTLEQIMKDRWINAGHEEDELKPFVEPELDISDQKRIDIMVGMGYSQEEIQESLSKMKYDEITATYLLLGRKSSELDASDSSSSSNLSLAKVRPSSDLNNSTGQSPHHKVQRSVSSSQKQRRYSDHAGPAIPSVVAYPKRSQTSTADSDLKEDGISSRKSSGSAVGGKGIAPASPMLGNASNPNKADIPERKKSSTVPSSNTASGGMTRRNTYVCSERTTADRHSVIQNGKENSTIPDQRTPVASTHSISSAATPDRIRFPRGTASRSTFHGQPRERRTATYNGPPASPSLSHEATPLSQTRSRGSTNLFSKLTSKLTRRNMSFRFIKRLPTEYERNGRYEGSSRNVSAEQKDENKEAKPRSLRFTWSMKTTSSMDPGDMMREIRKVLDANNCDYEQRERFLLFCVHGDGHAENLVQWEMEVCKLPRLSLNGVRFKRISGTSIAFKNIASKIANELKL
# [8] = system: Mast/stem cell growth factor receptor Kit (Homo sapiens), P10721 [V559D]; conditions: Compound concentration 1000.0 nM
# Mast/stem cell growth factor receptor Kit (Homo sapiens), P10721 [V559D], sequence (P10721 whole entry V559D): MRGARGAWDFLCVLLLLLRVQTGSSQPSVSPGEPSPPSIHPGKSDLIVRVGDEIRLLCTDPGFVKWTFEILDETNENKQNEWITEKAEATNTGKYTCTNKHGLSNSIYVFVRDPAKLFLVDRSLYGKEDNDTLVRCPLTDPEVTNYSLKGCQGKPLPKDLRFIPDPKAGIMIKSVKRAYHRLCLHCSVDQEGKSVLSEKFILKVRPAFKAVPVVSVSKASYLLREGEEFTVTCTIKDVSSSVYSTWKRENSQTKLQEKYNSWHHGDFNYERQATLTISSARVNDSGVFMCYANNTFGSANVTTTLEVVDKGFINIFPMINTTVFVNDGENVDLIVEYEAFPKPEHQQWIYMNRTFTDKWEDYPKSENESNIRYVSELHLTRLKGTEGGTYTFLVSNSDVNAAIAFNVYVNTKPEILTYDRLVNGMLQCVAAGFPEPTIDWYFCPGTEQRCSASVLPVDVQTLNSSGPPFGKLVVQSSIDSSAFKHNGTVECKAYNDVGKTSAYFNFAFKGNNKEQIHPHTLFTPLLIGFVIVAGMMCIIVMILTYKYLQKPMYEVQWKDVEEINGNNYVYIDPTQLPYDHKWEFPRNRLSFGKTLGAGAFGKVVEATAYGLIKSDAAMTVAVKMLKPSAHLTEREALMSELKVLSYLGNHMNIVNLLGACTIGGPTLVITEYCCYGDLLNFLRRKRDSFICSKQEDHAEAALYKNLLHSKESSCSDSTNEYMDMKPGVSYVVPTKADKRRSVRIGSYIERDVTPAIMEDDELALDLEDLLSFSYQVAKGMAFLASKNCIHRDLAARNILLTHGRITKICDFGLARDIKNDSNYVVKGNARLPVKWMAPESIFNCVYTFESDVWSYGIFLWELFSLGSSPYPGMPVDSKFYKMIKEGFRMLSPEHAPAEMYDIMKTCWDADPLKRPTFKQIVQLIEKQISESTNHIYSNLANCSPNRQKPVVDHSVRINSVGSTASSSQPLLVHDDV
# [9] = target: T2, TGF-beta receptor type-1 (Homo sapiens) (UniProt P36897); conditions: Compound concentration 1000.0 nM
# T2 sequence (whole entry): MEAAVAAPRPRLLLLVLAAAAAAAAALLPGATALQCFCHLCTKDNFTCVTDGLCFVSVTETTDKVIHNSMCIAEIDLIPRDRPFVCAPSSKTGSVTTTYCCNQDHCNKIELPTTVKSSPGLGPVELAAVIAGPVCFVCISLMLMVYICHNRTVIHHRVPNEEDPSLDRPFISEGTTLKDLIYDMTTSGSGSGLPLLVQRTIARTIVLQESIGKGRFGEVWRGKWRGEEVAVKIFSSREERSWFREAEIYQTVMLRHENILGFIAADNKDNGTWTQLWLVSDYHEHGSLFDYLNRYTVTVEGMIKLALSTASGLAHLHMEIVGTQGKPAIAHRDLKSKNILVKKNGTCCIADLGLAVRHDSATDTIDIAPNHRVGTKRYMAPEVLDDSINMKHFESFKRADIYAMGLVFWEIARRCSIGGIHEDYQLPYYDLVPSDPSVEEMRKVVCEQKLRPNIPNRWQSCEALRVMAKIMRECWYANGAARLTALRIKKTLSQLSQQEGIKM
# [10] = target: T3, Tyrosine-protein kinase JAK3 (Homo sapiens) (UniProt P52333); conditions: Compound concentration 1000.0 nM
# T3 sequence (whole entry): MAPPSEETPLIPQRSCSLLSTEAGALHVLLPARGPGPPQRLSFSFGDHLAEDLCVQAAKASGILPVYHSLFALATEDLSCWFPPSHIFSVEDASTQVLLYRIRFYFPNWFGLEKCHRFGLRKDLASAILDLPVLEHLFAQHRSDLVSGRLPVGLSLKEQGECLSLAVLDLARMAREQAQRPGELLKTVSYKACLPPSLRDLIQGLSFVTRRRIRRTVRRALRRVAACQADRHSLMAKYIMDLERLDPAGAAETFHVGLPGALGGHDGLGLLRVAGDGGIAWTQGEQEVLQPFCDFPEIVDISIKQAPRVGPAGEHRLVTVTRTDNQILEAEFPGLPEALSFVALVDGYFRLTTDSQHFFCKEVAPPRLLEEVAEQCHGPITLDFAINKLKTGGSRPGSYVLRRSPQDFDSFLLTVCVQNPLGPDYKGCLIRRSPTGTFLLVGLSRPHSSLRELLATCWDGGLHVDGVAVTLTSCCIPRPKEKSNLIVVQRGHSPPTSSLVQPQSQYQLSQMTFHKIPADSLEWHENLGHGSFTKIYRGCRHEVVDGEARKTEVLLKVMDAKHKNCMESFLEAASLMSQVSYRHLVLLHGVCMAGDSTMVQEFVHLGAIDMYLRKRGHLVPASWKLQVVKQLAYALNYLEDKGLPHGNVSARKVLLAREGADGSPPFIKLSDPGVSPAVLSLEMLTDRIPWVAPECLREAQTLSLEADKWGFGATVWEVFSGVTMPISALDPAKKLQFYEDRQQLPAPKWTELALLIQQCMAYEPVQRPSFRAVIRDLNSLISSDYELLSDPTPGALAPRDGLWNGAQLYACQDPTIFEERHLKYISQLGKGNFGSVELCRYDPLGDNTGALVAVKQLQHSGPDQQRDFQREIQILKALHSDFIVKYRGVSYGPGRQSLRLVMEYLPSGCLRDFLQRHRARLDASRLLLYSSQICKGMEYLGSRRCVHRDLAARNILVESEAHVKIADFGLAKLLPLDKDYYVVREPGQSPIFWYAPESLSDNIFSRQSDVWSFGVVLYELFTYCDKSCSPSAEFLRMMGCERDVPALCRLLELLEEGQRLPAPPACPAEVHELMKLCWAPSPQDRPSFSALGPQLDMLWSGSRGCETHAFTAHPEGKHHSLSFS
# Alpha-2B adrenergic receptor (Homo sapiens), sequence (P18089 whole entry): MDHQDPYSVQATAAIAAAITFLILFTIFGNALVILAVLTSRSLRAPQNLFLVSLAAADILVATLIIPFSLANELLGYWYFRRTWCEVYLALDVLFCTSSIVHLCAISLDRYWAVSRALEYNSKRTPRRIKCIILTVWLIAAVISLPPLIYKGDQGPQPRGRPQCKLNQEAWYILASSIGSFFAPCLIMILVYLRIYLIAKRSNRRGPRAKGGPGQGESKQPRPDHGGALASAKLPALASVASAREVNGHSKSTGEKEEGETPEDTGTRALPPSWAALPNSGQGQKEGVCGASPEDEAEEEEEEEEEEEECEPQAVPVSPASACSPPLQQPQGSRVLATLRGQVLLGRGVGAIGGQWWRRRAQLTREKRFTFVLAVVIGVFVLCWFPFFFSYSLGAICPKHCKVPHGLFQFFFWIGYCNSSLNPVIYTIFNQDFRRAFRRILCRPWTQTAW
# Ribosomal protein S6 kinase beta-1 (Homo sapiens), sequence (P23443 whole entry, looked up): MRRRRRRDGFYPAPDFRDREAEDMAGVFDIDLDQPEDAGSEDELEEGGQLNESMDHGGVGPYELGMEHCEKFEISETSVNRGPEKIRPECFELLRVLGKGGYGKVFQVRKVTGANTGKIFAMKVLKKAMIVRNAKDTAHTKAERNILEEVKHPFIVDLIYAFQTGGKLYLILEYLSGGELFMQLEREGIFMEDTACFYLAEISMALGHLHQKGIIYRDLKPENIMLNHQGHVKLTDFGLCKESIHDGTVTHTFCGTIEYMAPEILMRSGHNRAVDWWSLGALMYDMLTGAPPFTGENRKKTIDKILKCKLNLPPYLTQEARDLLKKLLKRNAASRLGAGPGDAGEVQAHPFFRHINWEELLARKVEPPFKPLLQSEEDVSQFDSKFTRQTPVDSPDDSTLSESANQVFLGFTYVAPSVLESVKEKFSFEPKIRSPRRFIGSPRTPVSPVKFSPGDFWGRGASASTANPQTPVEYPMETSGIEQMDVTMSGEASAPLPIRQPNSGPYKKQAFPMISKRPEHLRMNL
# Serine/threonine-protein kinase SBK1 (Homo sapiens), sequence (Q52WX2 whole entry): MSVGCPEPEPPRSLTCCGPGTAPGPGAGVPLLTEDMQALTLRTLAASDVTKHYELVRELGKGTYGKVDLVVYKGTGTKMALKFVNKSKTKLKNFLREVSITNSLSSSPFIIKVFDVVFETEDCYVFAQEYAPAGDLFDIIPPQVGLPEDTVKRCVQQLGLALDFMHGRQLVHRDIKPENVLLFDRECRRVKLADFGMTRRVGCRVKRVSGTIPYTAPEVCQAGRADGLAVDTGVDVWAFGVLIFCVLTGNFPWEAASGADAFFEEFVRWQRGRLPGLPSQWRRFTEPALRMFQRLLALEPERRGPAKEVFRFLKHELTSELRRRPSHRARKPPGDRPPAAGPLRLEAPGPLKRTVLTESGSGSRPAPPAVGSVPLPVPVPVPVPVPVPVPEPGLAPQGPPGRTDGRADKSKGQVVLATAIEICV
Structure (SMILES),residual activity [1],inhibition [2],residual activity [3],inhibition [4],residual activity [5],residual activity [6],residual activity [7],residual activity [8],residual activity [9],residual activity [10]
CCc1ccccc1C(=O)Nc1n[nH]c2c(C)c(F)c(C3C(C#N)=C(C)N(C)C(C)=C3C#N)cc12 [BAY-3827],80%,10.6%,100%,19.9%,88%,96%,30%,83%,58%,79%
CC1=C(C#N)C(c2ccc3c(c2)c(NC(=O)c2ccccc2C)nn3C)C(C#N)=C(C)N1 [BAY-974],74%,20.7%,98%,0.04%,66%,85%,92%,100%,100%,83%
